According to US8927550B2, “Heterocyclic compounds as CCR1 receptor antagonists” (Boehringer Ingelheim International GmbH, priority 2009, dated 2015):

Biological target: T1, CCR1 (Homo sapiens, UniProt P32246)
T1 construct: host or cells: Non-adherent cells
T1 sequence (P32246 1-355): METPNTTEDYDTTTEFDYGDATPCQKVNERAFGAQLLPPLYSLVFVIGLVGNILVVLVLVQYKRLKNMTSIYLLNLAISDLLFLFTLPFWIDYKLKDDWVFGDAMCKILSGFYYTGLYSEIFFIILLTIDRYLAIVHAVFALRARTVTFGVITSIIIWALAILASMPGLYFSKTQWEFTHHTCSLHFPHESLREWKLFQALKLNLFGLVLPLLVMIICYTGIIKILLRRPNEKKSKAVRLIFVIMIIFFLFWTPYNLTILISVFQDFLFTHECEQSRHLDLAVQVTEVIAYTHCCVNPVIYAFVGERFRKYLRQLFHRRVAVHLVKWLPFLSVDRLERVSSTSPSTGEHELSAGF
Experiment: Calcium flux in CCR1 transfected cells, Method A (Fluo-4 NW dye, FLIPR TETRA), MIP-1 alpha at EC80
Type: cell-based
Settings: cells stably expressing recombinant CCR1 and G-alpha-16, 1 hour at room temperature
Protocol: Compounds are assessed for the ability to block the interaction of CCR1 and MIP-1α in a functional cellular assay measuring calcium flux in CCR1 transfected cells.
Method A: Non-adherent cells purchased from Chemicon Corporation (HTS005C), stably expressing recombinant CCR1 and G-alpha-16 are grown in RPMI 1640 medium (Mediatech 10-080-CM) supplemented with 10% heat-inactivated FBS, 0.4 mg/mL Geneticin and penicillin/streptomycin. On the day of the assay, the cells are transferred to a beaker and dye-loaded in bulk using a Fluo-4 NW Calcium Assay Kit with probenecid (Invitrogen F36205) at 0.8E6 cells/mL for 1 hour at room temperature. After 1 hour, they are seeded in a 384-well tissue culture-treated plate at a density of 20,000 cells/well. Appropriately diluted test compound is added to the well to achieve a top concentration of 3,000 nM (diluted 4-fold with 10 doses total). The final concentration of DMSO is 1%. The buffer is HBSS (Invitrogen 14025) with 20 mM HEPES at pH 7.4. The cells are allowed to incubate 1 hour in the dark at room temperature. The plates are transferred to the FLIPR TETRA where MIP-1 alpha in 1% BSA is added at the EC80 final concentration. Wells+/−MIP-1 alpha containing diluted DMSO instead of compound serve as the controls. Intracellular calcium flux is recorded on the FLIPR TETRA, using excitation at 470/495 nm and emission at 515/575 nm. Data are analyzed using Activity Base software.

`CS(=O)(=O)c1cccc(CNC(=O)c2cccn3c(-c4ccc(F)cc4)ncc23)c1` [3-(4-Fluorophenyl)-imidazo[1,5-a]pyridine-8-carboxylic acid 3-methanesulfonyl-benzylamide] and `CS(=O)(=O)c1cc(CNC(=O)c2cccn3c(-c4ccc(F)cc4)ncc23)ccn1` [3-(4-Fluorophenyl)-imidazo[1,5-a]pyridine-8-carboxylic acid (2-methanesulfonyl-pyridin-4-ylmethyl)-amide] are within 1.5-fold of each other in IC50: 305 nM for the first, 285 nM for the second.

Going from `O=C(NCc1cccc(C(F)(F)F)c1)c1cccn2c(-c3ccc(F)cc3)ncc12` [3-(4-Fluorophenyl)-imidazo[1,5-a]pyridine-8-carboxylic acid 3-trifluoromethyl-benzylamide] to `O=C(NCc1cccc(C(F)(F)F)c1)c1cccn2c(-c3ccc(Cl)c(Cl)c3)ncc12` [3-(3,4-Dichlorophenyl)-imidazo[1,5-a]pyridine-8-carboxylic acid 3-trifluoromethyl-benzylamide], the IC50 rises from 18 nM to 810 nM (45-fold).

`CS(=O)(=O)c1ccc(CNC(=O)c2cccn3c(-c4ccc(F)cc4)ncc23)cn1` [3-(4-Fluorophenyl)-imidazo[1,5-a]pyridine-8-carboxylic acid (6-methanesulfonyl-pyridin-3-ylmethyl)-amide] and `O=C(NCc1ccc(Br)nc1)c1cccn2c(-c3ccc(F)cc3)ncc12` [3-(4-Fluorophenyl)-imidazo[1,5-a]pyridine-8-carboxylic acid (6-bromopyridin-3-ylmethyl)-amide] are within 1.5-fold of each other in IC50: 568 nM for the first, 428 nM for the second.

Compared with `O=C(NCc1ccnc(Br)c1)c1cccn2c(-c3ccc(F)cc3)ncc12` [3-(4-Fluorophenyl)-imidazo[1,5-a]pyridine-8-carboxylic acid (2-bromopyridin-4-ylmethyl)-amide], `CCCC(NC(=O)c1cccn2c(-c3ccc(F)cc3)ncc12)c1ccc(S(C)(=O)=O)nc1` (centres unmarked) [3-(4-Fluorophenyl)-imidazo[1,5-a]pyridine-8-carboxylic acid [1-(6-methanesulfonyl-pyridin-3-yl)-butyl]-amide] is 1.6-fold lower in IC50: 11 nM for the first, 7 nM for the second.
